Measured values taken from patent US20220380341A1, “INHIBITORS OF HIV-1 NEF FOR THE TREATMENT OF HIV DISEASE” (priority 2018, published 2022).
Read-outs that look alike come from different tables or passages of the source.

How the values were obtained:
HIV-1NL4-3 = assay: HIV-1 infectivity assay in TZM-bl reporter cell line (LTR-luciferase, 48 h); type: cell-based; conditions: Human immunodeficiency virus 1, TZM-bl
Summary of the method: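 Compounds were tested at 1 μM in TZM-bl cells infected with HIV-1NL4-3. Infectivity was read as luciferase signal 48 h after infection and expressed as percent inhibition, normalized between DMSO-treated wild-type infection (0%) and DMSO-treated Nef-defective HIV-1 infection (100% of the Nef-dependent effect).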

TZM-bl cell line = type: cell-based; conditions: human, 1 μM
Summary of the method: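 Luciferase read-out 48 h post-infection; compound at 1 μM during HIV-1NL4-3 infection of TZM-bl cells. Percent inhibition scaled to DMSO wild-type virus (0%) and DMSO Nef-defective virus (100% of Nef-dependent effect). Viability checked separately in uninfected cells by Cell Titer Blue.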

HIV-1 NefNL4-3 = HIV-1 NefNL4-3 (Human immunodeficiency virus type 1 group M subtype B, UniProt P03406, A33V/T15A/T51N/V11I); assay: Surface plasmon resonance binding to recombinant full-length Nef (NL4-3); conditions: for RU30/RUNef (extent of binding): response units at 30 μM relative to Nef immobilized on the SPR chip; for Nef NL4-3 Binding, SPR 1:1 or 2-site fitting KD1: 1:1 Langmuir fit where the KD2 cell says '1 to 1 fitting', else 2-site fit
[1] = 48 h, Table 1, TZM-bl cells, 1 μM, 48 h, 100% = Nef-defective HIV-1, read-out: HIV-1 Infectivity % Inhibition Norm. to Δ-Nef @ 1 μM
[2] = 1.0 μM, TZM-bl reporter cell line, Table 4, read-out: % Infectivity Inhibition
[3] = KD, M, Table 4, SPR fit 1:1 Langmuir, KD = koff/kon
[4] = Table 4, 1:1 Langmuir fit, T = 1/koff
[5] = KD, M, Table 4, SPR fit 2-step induced fit, KD = koff/kon × koff2/(koff2 + kon2)
[6] = Table 4, 2-step induced fit, T = 1/koff2
[7] = read-out: Nef NL4-3 Binding, SPR 1:1 or 2-site fitting KD2, Table 1, 2-site fit, second component
[8] = Nef NL4-3 Binding, SPR 2-state fitting KD, Table 1, 2-step induced-fit model

| Structure (SMILES) | inhibition at 1 µM (HIV-1NL4-3; [1]) [%] | Percent Viability @ 1 μM (TZM-bl cells) (TZM-bl cell line) [%] | Kd (HIV-1 NefNL4-3) [nM] | inhibition at 1 µM (HIV-1NL4-3; [2]) [%] | % Cell Viability (TZM-bl cell line) [%] | Kd (HIV-1 NefNL4-3; [3]) [nM] | T, minutes (residence time) (HIV-1 NefNL4-3; [4]) | RU30/RUNef (extent of binding) (HIV-1 NefNL4-3) | Nef NL4-3 Binding, SPR 1:1 or 2-site fitting KD1 (HIV-1 NefNL4-3; Table 1) | Kd (HIV-1 NefNL4-3; [5]) [nM] | T, minutes (residence time) (HIV-1 NefNL4-3; [6]) | Kd (HIV-1 NefNL4-3; [7]) [nM] | Kd (HIV-1 NefNL4-3; [8]) [nM] |
| --- | --- | --- | --- | --- | --- | --- | --- | --- | --- | --- | --- | --- | --- |
| O=C1CN(Cc2nn(-c3nc4ccccc4[nH]3)c(O)c2CCc2ccc(F)cc2)CCN1c1ccccc1 [Compound I-155, 4-{[1-(1H-1,3-benzodiazol-2-yl)-4-[2-(4-fluorophenyl)ethyl]-5-hydroxy-1H-pyrazol-3-yl]methyl}-1-phenylpiperazin-2-one] | -5.9 | 98.2 | 3400 | – | – | – | – | – | – | – | – | – | – |
| Cc1nn(-c2nc3ccccc3[nH]2)c(O)c1Cc1ccc(Cl)cc1F [Compound I-156, 1-(1H-1,3-benzodiazol-2-yl)-4-[(4-chloro-2-fluorophenyl)methyl]-3-methyl-1H-pyrazol-5-ol] | 15.4 | 101.5 | 8.56 | 15.4 | 100 | 8.56 | 7.34E + 02 minutes | 3.62E- 03 | – | – | – | – | – |
| Oc1c(CCc2ccc(F)cc2)c(CN2CCOCC2)nn1-c1nc2ccccc2[nH]1 [Compound I-157, 1-(1H-1,3-benzodiazol-2-yl)-4-[2-(4-fluorophenyl)ethyl]-3-[(morpholin-4-yl)methyl]-1H-pyrazol-5-ol] | 13.2 | 100.7 | 7800 | – | – | – | – | – | – | – | – | – | – |
| O=C(OCc1ccccc1)N1CCC(c2nn(-c3nc4ccccc4[nH]3)c(O)c2CCc2ccc(F)cc2)CC1 [Compound I-158, benzyl 4-[1-(1H-1,3-benzodiazol-2-yl)-4-[2-(4-fluorophenyl)ethyl]-5-hydroxy-1H-pyrazol-3-yl]piperidine-1-carboxylate] | 101 | 92.0 | – | – | – | – | – | – | No Interaction | – | – | – | – |
| O=C(OCc1ccccc1)N1CCCC(c2nn(-c3nc4ccccc4[nH]3)c(O)c2CCc2ccc(F)cc2)C1 (stereo not shown) [Compound I-160, benzyl 3-[1-(1H-1,3-benzodiazol-2-yl)-4-[2-(4-fluorophenyl)ethyl]-5-hydroxy-1H-pyrazol-3-yl]piperidine-1-carboxylate] | 33.4 | 93.7 | 0.0063 | 33.4 | 93.7 | – | – | 1.74E- 02 | – | 0.00238 | 7.41E + 06 minutes | 2620 | – |
| Cc1ccn(CCc2c(-c3ccc(C(F)(F)F)cc3)nn(-c3nc4ccc(Cl)cc4[nH]3)c2O)n1 [Compound I-163, 1-(6-chloro-1H-1,3-benzodiazol-2-yl)-4-[2-(3-methyl-1H-pyrazol-1-yl)ethyl]-3-[4-(trifluoromethyl)phenyl]-1H-pyrazol-5-ol] | 0.3 | 96.6 | 1010 | 0.3 | 96.6 | – | – | 4.48E- 03 | – | 5820 | 1.44E + 01 minutes | – | 5820 |
| O=C(OCc1ccccc1)N1CCC(c2c(-c3ccc(C(F)(F)F)cc3)nn(-c3nc4ccccc4[nH]3)c2O)CC1 [Compound I-164, benzyl 4-[1-(1H-1,3-benzodiazol-2-yl)-5-hydroxy-3-[4-(trifluoromethyl)phenyl]-1H-pyrazol-4-yl]piperidine-1-carboxylate] | 64.9 | 93.6 | – | – | – | – | – | – | No Interaction | – | – | – | – |
| Oc1c(CCc2ccc(F)cc2)c(-c2ccccc2)nn1-c1nc2cc(Cl)ccc2[nH]1 [Compound I-165, 1-(5-chloro-1H-1,3-benzodiazol-2-yl)-4-[2-(4-fluorophenyl)ethyl]-3-phenyl-1H-pyrazol-5-ol] | 25.3 | 89.6 | 689 | 25.3 | 89.6 | – | – | 4.14E- 02 | – | 636 | 5.10E + 00 minutes | – | 636 |
| CS(=O)(=O)c1ccc(-c2nn(-c3nc4cc(Cl)ccc4[nH]3)c(O)c2CCC2CCOCC2)cc1 [Compound I-168, 1-(5-chloro-1H-1,3-benzodiazol-2-yl)-3-(4-methanesulfonylphenyl)-4-[2-(oxan-4-yl)ethyl]-1H-pyrazol-5-ol] | 19.2 | 97.9 | 751 | 19.2 | 97.9 | – | – | 6.97E- 03 | – | 2730 | 4.96E + 00 minutes | 4970 | 2730 |
| CS(=O)(=O)c1ccc(-c2nn(-c3nc4cc(F)ccc4[nH]3)c(O)c2CCC2CCOCC2)cc1 [Compound I-169, 1-(5-fluoro-1H-1,3-benzodiazol-2-yl)-3-(4-methanesulfonylphenyl)-4-[2-(oxan-4-yl)ethyl]-1H-pyrazol-5-ol] | -4.8 | 98.7 | 465 | – | – | – | – | – | – | – | – | 1810 | 7400 |
| COC(=O)c1ccc(CCc2c(-c3ccccc3)nn(-c3nc4cc(Cl)ccc4[nH]3)c2O)cc1 [Compound I-171, methyl 4-{2-[1-(5-chloro-1H-1,3-benzodiazol-2-yl)-5-hydroxy-3-phenyl-1H-pyrazol-4-yl]ethyl}benzoate] | 131 | 75.8 | 892 | 100 | 75.8 | – | – | 2.77E- 02 | – | 13.3 | 7.82E + 02 minutes | – | 13.3 |
| Oc1c(CCc2ccc(F)cc2)c(-c2ccc(F)cc2)nn1-c1nc2cc(Cl)ccc2[nH]1 [Compound I-172, 1-(5-chloro-1H-1,3-benzodiazol-2-yl)-3-(4-fluoropheny1)-4-[2-(4-fluorophenyl)ethyl]-1H-pyrazol-5-ol] | 56 | 96.5 | 250 | 56 | 96.5 | – | – | 4.28E- 02 | – | 69.3 | 1.73E + 01 minutes | – | 69.3 |
| Oc1c(CC2CCOCC2)c(-c2ccc(F)cc2)nn1-c1nc2cc(F)ccc2[nH]1 [Compound I-173, 1-(5-fluoro-1H-1,3-benzodiazol-2-yl)-3-(4-fluorophenyl)-4-[(oxan-4-yl)methyl]-1H-pyrazol-5-ol] | – | – | – | 97.2 | 85.7 | – | – | 5.24E- 03 | – | 0.348 | 7.12E + 04 minutes | – | – |
| Oc1c(CC2CCOCC2)c(C2CC2)nn1-c1nc2ccccc2[nH]1 [Compound I-174, 1-(1H-1,3-benzodiazol-2-yl)-3-cyclopropyl-4-[(oxan-4-yl)methyl]-1H-pyrazol-5-ol] | 11.9 | 101.5 | 1370 | 11.9 | 100 | 1370 | 6.54E + 00 minutes | 3.94E- 03 | – | – | – | – | – |
| Oc1c(CC2CCCOC2)c(-c2ccc(F)cc2)nn1-c1nc2ccccc2[nH]1 (stereo not shown) [Compound I-175, 1-(1H-1,3-benzodiazol-2-yl)-3-(4-fluorophenyl)-4-[(oxan-3-yl)methyl]-1H-pyrazol-5-ol] | – | – | – | 67.2 | 88.8 | 605 | 7.72E + 00 minutes | 6.67E- 04 | – | – | – | – | – |
| Oc1c(CC2CCOCC2)c(C2CC(F)(F)C2)nn1-c1nc2ccccc2[nH]1 [Compound I-176, 1-(1H-1,3-benzodiazol-2-yl)-3-(3,3-difluorocyclobutyl)-4-[(oxan-4-yl)methyl]-1H-pyrazol-5-ol] | – | – | – | 0 | 98.4 | 2240 | 5.08E + 00 minutes | 1.52E- 03 | – | – | – | – | – |
| Oc1c(CC2CCOCC2)c(CCC2CCOCC2)nn1-c1nc2ccccc2[nH]1 [Compound I-178, 1-(1H-1,3-benzodiazol-2-yl)-3-[2-(oxan-4-yl)ethyl]-4-[(oxan-4-yl)methyl]-1H-pyrazol-5-ol] | – | – | – | 0 | 97.9 | – | – | 8.86E- 03 | – | 10900 | 7.72E + 00 minutes | – | – |
| CC(C)(C)c1nn(-c2nc3ccccc3[nH]2)c(O)c1CC1CCOCC1 [Compound I-180, 1-(1H-1,3-benzodiazol-2-yl)-3-tert-butyl-4-[(oxan-4-yl)methyl]-1H-pyrazol-5-ol] | – | – | – | 74.8 | 100 | 7190 | 2.48E + 00 minutes | 2.62E- 03 | – | – | – | – | – |
| Oc1c(CCC2CCOCC2)c(-c2ccc(F)cc2)nn1-c1nc2ccccc2[nH]1 [Compound I-182, 1-(1H-1,3-benzodiazol-2-yl)-3-(4-fluorophenyl)-4-[2-(oxan-4-yl)ethyl]-1H-pyrazol-5-ol] | – | – | – | 100 | 90 | – | – | 1.11E- 02 | – | 4420 | 9.98E + 00 minutes | – | – |
